Assay results taken from PMC10330721, “Chemo-enzymatic synthesis and biological activity evaluation of propenylbenzene derivatives” (Frontiers in Microbiology, 2023).
In brackets after ≈: the same amount, converted by molar mass. Read-outs that look alike come from different tables or passages of the source.

Experiments:
RBCs membrane = experiment: Fluorescence spectroscopy of the RBCs membrane (DPH probe anisotropy); format: cell-based, human; conditions: for Fluorescence anisotropy of the DPH probe: membranes of RBCs, 37 °C; for Change in DPH anisotropy / RBCs membrane fluidity (in words): RBCs, 20, 60 and 100 μM
Description: Using the DPH probe, the anisotropy values of cell membranes of RBCs modified with the test compounds were measured. RBCs for this analysis were prepared according to the method described in subsection 2.5.3. Then, the DPH probe was added to RBCs with a haematocrit of 0.2%. The final concentration of the probe in the sample was 1.3 μM. The mixture was incubated protected from light at 37°C for 30 min. Then, the compounds dissolved in ethanol were added. The compounds were tested at 20, 60, and 100 μM concentrations. Samples with compounds and control samples with alcohol of the appropriate concentration were incubated at 37°C for 1 h. Measurements in triplicate were made in quartz cuvettes using a CARY Eclipse fluorimeter (Varian, San Diego, CA, United States) at 37°C. The excitation wavelength for the DPH probe is λexc = 360 nm and the emission wavelength is λem = 426 nm.

Caco-2 cells = experiment: Resazurin-based viability assay; format: cell-based, human; conditions: for Effect on Caco-2 proliferation / viability (in words): 24 h, 1, 50 and 200 μg/mL
Description: (§1) The human HepG2 and Caco-2 cell lines were obtained from the American Type Culture Collection (HB-8065™ and HTB-37™) and the MG-63 cell line was obtained from the European Collection of Authenticated Cell Cultures (Merck, Poznań, Poland). HepG2 cells were cultured in Dulbecco’s modified Eagle’s Medium - low glucose (Merck) supplemented with 10% foetal bovine serum (FBS) (Merck). Caco-2 cells were cultured in Dulbecco’s modified Eagle’s medium - high glucose (Merck) supplemented with 10% FBS, 2% HEPES buffer (Thermo Fisher Scientific, Warszawa, Poland), 1% Penicillin–Streptomycin-Amphotericin B Solution (100×, Merck), 1% MEM solution (100×, Thermo Fisher Scientific), and 1% Gentamycin Solution (10 mg/mL, Merck). MG-63 cells were cultured in Minimum Essential Medium (Merck) supplemented with 10% FBS. All cells were cultured in an atmosphere of 5% CO2 at 37°C.
(§2) HepG2, Caco-2, and […] were seeded in 96-well plates at 20,000 cells per well, and MG-63 cells at 10,000 cells per well, as described previously ([Marycz et al., 2012]; [Kornicka et al., 2017]). The tested compounds were dissolved in ethanol at 10 mg/mL. The concentrations were then adjusted to 1, 50, and 200 μg/mL in culture medium. Four controls were prepared: no ethanol added, and 0.01, 0.5, and 2% EtOH. The cells were treated with the compounds for 24 h. Then, cell viability was evaluated using the resazurin-based assay kit (TOX8), as described previously ([Grzesiak et al., 2011]; [Marycz et al., 2018]). The culture medium was replaced with medium containing 10% resazurin dye. The cells were incubated at 37°C in an atmosphere of 5% CO2 for 2 h. Absorbance levels were measured spectrophotometrically (Epoch) at a wavelengths of 600 nm for resazurin and 690 nm as a reference.

C. albicans 595/20 = experiment: Fungistatic activity assay, broth microdilution; format: cell-based; conditions: Candida albicans
Description: (§3) Fungistatic activity was determined using Candida albicans ATCC 90028 from the American Type Culture Collection (ATCC, Manassas, VA, United States), and clinical isolates, C. albicans 636/20, C. albicans 595/20, and C. albicans 38 obtained from Wrocław Medical University, Wrocław, Poland.
(§4) All compounds were tested for biological activity against C. albicans ATTC 90028, C. albicans 636/20, C. albicans 595/20, and C. albicans 38 using the broth microdilution method. YPD medium (20 g glucose, 20 g Bacto Peptone, 10 g yeast extract, and 1 L of distilled water, pH 6.5) was used for the tests. The compound solutions were prepared in DMSO and diluted in YPD to obtain final concentrations in the range of 10–250 μg/mL. One hundred microlitres of each solution was pipetted into the wells of a 96-well microtiter plate. The inoculum was standardized to 0.5 McFarland standard and then diluted to obtain a final suspension with a cell density of 0.5–2.5 × 10^3 CFU/mL. The inoculum size was 100 μL. The positive control comprised DMSO added in the same concentration as the tested compounds in the inoculum, whereas the negative control consisted of DMSO diluted in the broth without the addition of inoculum. The microtiter plates were incubated in a Biosan PST-60 HL Plate Shaker-Thermostat (Riga, Latvia) at 35°C under shaking at 1,000 rpm for 24 h.

C. albicans 636/20 = experiment: Fungistatic activity assay, broth microdilution; format: cell-based; conditions: Candida albicans, 636/20, 24 h
Description: as §3, §4

[1] = Haemolytic activity assay; format: cell-based; conditions: human red blood cells (RBCs) from healthy donors, 37°C, read-out: Percentage of haemolysis
Description: This test is based on comparison of the cytotoxicity of all tested compounds in human red blood cells (RBCs) with that in a control group. RBCs for this method were obtained from a blood center from examined and healthy donors. The compounds were tested at 10, 20, 40, 60, 80, and 100 μM concentrations. The control sample contained only ethanol in the same volume as the test samples. […] The samples were incubated at 37°C for 1 h. Then, the absorbance at 540 nm was measured using a UV–Vis spectrophotometer (Specord 40, Analytik Jena, Jena, Germany). The haemolytic activity of the compounds was determined as the ratio of the absorbance of haemoglobin in the test samples to that in completely haemolyzed cells multiplied by 100%.

C. albicans strains = experiment: Fungistatic activity assay, broth microdilution, values given over several strains; format: cell-based, Candida albicans; conditions: Candida albicans
Description: as §3, §4

MG63 cells = experiment: Resazurin-based viability assay; format: cell-based, human; conditions: for Effect on MG63 proliferation / viability (in words): 24 h, 1, 50 and 200 μg/mL
Description: as §1, with “HepG2” for “The human HepG2 and Caco-2 cell lines were obtained from the American Type Culture Collection (HB-8065™ and HTB-37™) and the MG-63 cell line was obtained from the European Collection of Authenticated Cell Cultures (Merck, Poznań, Poland). HepG2”
The tested compounds were dissolved in ethanol at 10 mg/mL. The concentrations were then adjusted to 1, 50, and 200 μg/mL in culture medium. Four controls were prepared: no ethanol added, and 0.01, 0.5, and 2% EtOH. The cells were treated with the compounds for 24 h. […] The culture medium was replaced with medium containing 10% resazurin dye. The cells were incubated at 37°C in an atmosphere of 5% CO2 for 2 h. Absorbance levels were measured spectrophotometrically (Epoch) at a wavelengths of 600 nm for resazurin and 690 nm as a reference.

HepG2 cells = experiment: Resazurin-based viability assay; format: cell-based, human
Description: as §1, §2

C. albicans ATTC18804 = test system: C. albicans ATTC18804; design: method as in Kubo et al., 1993; conditions: C. albicans ATTC18804 ref Kubo et al., 1993; cited from earlier work

SMILES	Fluorescence anisotropy of the DPH probe (RBCs membrane; 20 µM)	Fluorescence anisotropy of the DPH probe (RBCs membrane; 60 µM)	Fluorescence anisotropy of the DPH probe (RBCs membrane; 100 µM)	Effect on Caco-2 proliferation / viability (in words) (Caco-2 cells)	hemolysis at 1 h, 10 µM [1]	hemolysis at 1 h, 20 µM [1]	hemolysis at 1 h, 40 µM [1]	hemolysis at 1 h, 60 µM [1]	hemolysis at 1 h, 80 µM [1]	hemolysis at 1 h, 100 µM [1]	Effect on MG63 proliferation / viability (in words) (MG63 cells)	Change in DPH anisotropy / RBCs membrane fluidity (in words) (RBCs membrane)	other results
CC(O)C(O)c1ccc2c(c1)OCO2 (stereo not shown) [1b, 1-(1,3-benzodioxol-5-yl)propane-1,2-diol]	0.247 ± 0.018	0.274 ± 0.036	0.252 ± 0.012	strongest inhibition	2.28 ± 0.251%	1.86 ± 0.293%	1.98 ± 0.272%	1.88 ± 0.251%	2.39 ± 0.349%	2.58 ± 0.321%	–	–	MIC50 (C. albicans 595/20; 595/20, 24 h): 107 µg/mL (≈ 545 µM); MIC50 (C. albicans 636/20): 177 µg/mL (≈ 902 µM)
CC(O)C(=O)c1ccc2c(c1)OCO2 (stereo not shown) [1c, 1-(1,3-benzodioxol-5-yl)-2-hydroxypropan-1-one]	0.260 ± 0.011	0.267 ± 0.019	0.277 ± 0.078	–	1.46 ± 0.08%	1.17 ± 0.02%	1.81 ± 0.302%	1.85 ± 0.027%	1.41 ± 0.295%	1.51 ± 0.576%	suppressed the proliferation	–	MIC50 (C. albicans strains; read-out: MIC50 (over three strains)): 178 to 200 µg/mL (≈ 917 to 1030 µM); MIC50 (C. albicans 636/20): > 250 µg/mL
COc1ccc(C(O)C(C)O)cc1 (stereo not shown) [3b, 1-(4-methoxyphenyl)propane-1,2-diol]	0.272 ± 0.019	0.249 ± 0.083	0.262 ± 0.056	strongest inhibition	2.45 ± 0.509%	2.98 ± 0.153%	1.9 ± 0.209%	2.29 ± 0.635%	2.4 ± 0.209%	2.6 ± 0.265%	suppressed the proliferation	an increase in anisotropy at lower concentrations and a decrease at higher concentrations	MIC50 (C. albicans strains; C. albicans 595/20, 636/20 and 38, read-out: MIC50 (over three strains)): 47 to 76 µg/mL (≈ 258 to 417 µM); Effect on HepG2 proliferation / viability (in words) (HepG2 cells; 24 h, 1, 50 and 200 μg/mL): significantly increased the proliferative potential; MIC50 (C. albicans 595/20; C. albicans 595/20, 24 h, 35°C, tested 10–250 μg/mL, read-out: MIC50): 47 µg/mL (≈ 258 µM)
CC=Cc1ccc(OC)c(OC)c1 [4a, 1,2-dimethoxy-4-prop-1-en-1-yl benzene]	0.264 ± 0.004	0.261 ± 0.008	0.269 ± 0.007	–	1.76 ± 0.152%	1.48 ± 0.173%	1.67 ± 0.195%	1.58 ± 0.18%	2.48 ± 0.152%	1.79 ± 0.159%	promoted MGC63 proliferation	–	MIC50 (C. albicans strains; read-out: MIC50 (over all tested strains)): 39 to 67 µg/mL (≈ 219 to 376 µM); MIC (C. albicans ATTC18804): 400 µg/mL (≈ 2240 µM)
COc1ccc(C(O)C(C)O)cc1OC (stereo not shown) [4b, 1-(3,4-dimethoxyphenyl)propane-1,2-diol]	0.289 ± 0.004	0.228 ± 0.095	0.290 ± 0.003	strongest inhibition	1.64 ± 0.127%	1.52 ± 0.375%	1.42 ± 0.074%	1.2 ± 0.395%	1.19 ± 0.04%	2.06 ± 0.536%	–	increase in anisotropy	MIC50 (C. albicans strains; C. albicans 636/20, 595/20, 38 and ATTC90028, read-out: MIC50 (over all tested strains)): 37 to 63 µg/mL (≈ 174 to 297 µM)
COc1ccc(C(=O)C(C)O)cc1OC (stereo not shown) [4c, 1-(3,4-dimethoxyphenyl)-2-hydroxypropan-1-one]	0.257 ± 0.014	0.243 ± 0.019	0.263 ± 0.008	–	1.483 ± 0.007%	1.93 ± 0.228%	2.1 ± 0.395%	1.77 ± 0.342%	2.02 ± 0.047%	2.445 ± 0.013%	promoted MGC63 proliferation	a decrease in anisotropy	–
COc1cc(C(O)C(C)O)ccc1O (stereo not shown) [5b, 1-(4-hydroxy-3-methoxyphenyl)propane-1,2-diol]	0.268 ± 0.025	0.277 ± 0.003	0.272 ± 0.058	–	1.27 ± 0.094%	1.55 ± 0.101%	1.52 ± 0.181%	1.62 ± 0.174%	2.58 ± 0.288%	1.98 ± 0.308%	suppressed the proliferation	–	Effect on Caco-2 proliferative activity (in words) (Caco-2 cells; 24 h, 1 μg/mL): induced the proliferative activity; Effect on HepG2 proliferative activity (in words) (HepG2 cells; 24 h, 1 μg/mL): induced the proliferative activity; Effect on MG63 proliferative activity (in words) (MG63 cells; 24 h, 1 μg/mL): induced the proliferative activity; Effect on MG63 proliferative activity / viability (in words) (MG63 cells; 24 h, 50 μg/mL): significantly increased cell viability
